Source: PMC11277489, “Novel Piperazine Derivatives of Vindoline as Anticancer Agents” (International Journal of Molecular Sciences, 2024)
Where two headings read alike, the source gives them in different places.

Key:
HeLa cell line = system: HeLa cell line; design: method as in PMID 32102414; conditions: cited from earlier work
[1] = system: non-tumor Chinese hamster ovary (CHO) cells; assay: CellTiter-Glo Luminescent Cell Viability Assay on non-tumor CHO cells; type: cell-based; conditions: for effect on CHO cell viability (in words) / IC50: 48 h; for effect on CHO cell viability (in words): 10^−7 and 10^−6 M; for IC50: read-out: IC50 (estimated)
Description: (§1) Three promising conjugates (20, 23, 25) were selected for testing on the non-tumor CHO cell line in the CellTiter-Glo Luminescent Cell Viability Assay (Promega Corporation, Madison, WI, USA) to reveal their selectivity for cancer cells.
(§2) Compounds 20, 23, and 25 were dissolved in DMSO in 10 mM stock solutions and stored frozen until use. CHO cells were cultured in complete Dulbecco’s Modified Eagle’s Medium (DMEM, low glucose (1 g/L)) supplemented with 10% fetal bovine serum, 1% Gibco GlutaMAX-I (100×) solution, 1% Gibco MEM non-essential amino acid solution (100×), and 0.1% penicillin–streptomycin mixture. Cells were grown in T-25 size cell culture flasks under standard cell culture conditions (37 °C, 5% CO2) and passaged at 70–80% confluency. The assay was performed according to the manufacturer’s protocol, as described previously. Briefly, CHO cells were seeded to opaque 96-well culture plates at a density of 5000 cells/100 µL complete DMEM/well. The side rows and columns of the plate were filled with sterile phosphate-buffer saline to avoid an edge effect. Following overnight incubation (37 °C, 5% CO2), the culture medium was aspirated from the cells and replaced with increasing concentrations of drug solutions (10^−5, 10^−6, and 10^−7 M) diluted from the stock solution in sterile complete DMEM (100 µL/well). Untreated cells served as a control, and complete DMEM served as a luminescent background control. Drug-treated cells were incubated for 48 h (37 °C, 5% CO2), and then equilibrated to room temperature in 30 min. At the end of the incubation period, 100 µL of room temperature CellTiter-Glo reagent was added to each well, and the plates were placed on an orbital shaker for 2 min and incubated for additional 10 min at room temperature without shaking. The luminescent signal was measured using an EnSpire AlphaLisa microplate reader (Perkin Elmer, Inc., Waltham, MA, USA). The normalized luminescent values of the treated cells were compared to those of the untreated control. The statistical analysis and calculation of IC50 values were performed in GraphPad Prism 8.0.1 (GraphPad, La Jolla, CA, USA). Estimated IC50 values were calculated by using non-linear regression by fitting a sigmoidal dose–response curve to the data points.

[2] = as above; type: cell-based, Chinese hamster; conditions: Chinese hamster, CHO cells, 48 h, 10^−5 M, mean ± SD, n = 9
Description: as §1, §2

[3] = Cricetulus griseus, CHO cells, roughly estimated from three concentrations
[4] = CHO cells (non-tumor Chinese hamster ovary cell line)

| Structure (SMILES) | IC50 (HeLa cell line) [µM] | effect on CHO cell viability (in words) ([1]; CHO cells) | IC50 ([1]; Cricetulus griseus, CHO) [µM] | viability at 48 h [2] [%] | IC50 [1, 3] [µM] | viability at 48 h [2, 4] [%] | EC50 ([1]; Cricetulus griseus, CHO, non-tumor cells, read-out: half-maximal effective concentration (EC50)) [µM] |
| --- | --- | --- | --- | --- | --- | --- | --- |
| CCC12C=CCN3CCC4(c5ccc(OC)cc5N(C)C4C(O)(C(=O)OC)C1OC(=O)CCCN1CCN(C)CC1)C32 (centres unmarked) [Compound 3] | 9.36 |  |  |  |  |  |  |
| CC[C@]12C=CCN3CC[C@@]4(c5ccc(OC)cc5N(C)[C@H]4[C@@](O)(C(=O)OC)[C@@H]1OC(=O)CCCN1CCN(C(c4ccc(F)cc4)c4ccc(F)cc4)CC1)[C@@H]32 [Compound 25] |  | did not affect CHO cell viability | ~6.64 | 33.5 ± 19.6 |  |  |  |
| CCC12C=CCN3CCC4(c5cc(NC(=O)CN6CCN(C(c7ccc(F)cc7)c7ccc(F)cc7)CC6)c(OC)cc5N(C)C4C(O)(C(=O)OC)C1OC(C)=O)C32 (centres unmarked) [Compound 20] |  | did not affect CHO cell viability |  |  | ~2.54 | 1.25 ± 0.77 |  |
| CC[C@]12C=CCN3CC[C@@]4(c5ccc(OC)cc5N(C)[C@H]4[C@@](O)(C(=O)OC)[C@@H]1OC(=O)CCCN1CCN(Cc4ccc(C(F)(F)F)cc4)CC1)[C@@H]32 [Compound 23] |  | did not affect CHO cell viability |  |  | ~10.8 | 52.8 ± 7.25 | 10.8 |
